Test results reported in patent publication US20160251332A1, “Herbicidal Compounds” (SYNGENTA PARTICIPATIONS AG, priority 2013, published 2016).

How the values were obtained:
Type in all cases: in vivo
Amaranthus retroflexus [1] = experiment: Pre-emergence herbicidal activity, AMARE; conditions: Application pre-emergence, 1000 g/Ha, evaluated after 13 days, scale 0-5
Protocol: (§1) Seeds of a variety of test species were sown in standard soil in pots. After cultivation for one day (pre-emergence) under controlled conditions in a glasshouse (at 24/16° C., day/night; 14 hours light; 65% humidity), the plants were sprayed with an aqueous spray solution derived from the formulation of the technical active ingredient in acetone/water (50:50) solution containing 0.5% Tween 20 (polyoxyethelyene sorbitan monolaurate, CAS RN 9005-64-5). The test plants were then grown in a glasshouse under controlled conditions (at 24/16° C., day/night; 14 hours light; 65% humidity) and watered twice daily. After 13 days, the test was evaluated (5=total damage to plant; 0=no damage to plant).

Echinochloa crus-galli [2] = experiment: Pre-emergence herbicidal activity, ECHCG; conditions: Application pre-emergence, 1000 g/Ha, evaluated after 13 days, scale 0-5
Protocol: as §1

Abutilon theophrasti [3] = experiment: Pre-emergence herbicidal activity, ABUTH; conditions: Application pre-emergence, 1000 g/Ha, evaluated after 13 days, scale 0-5
Protocol: as §1

Setaria faberi [4] = experiment: Pre-emergence herbicidal activity, SETFA; conditions: Application pre-emergence, 1000 g/Ha, evaluated after 13 days, scale 0-5
Protocol: as §1

Zea mays [5] = experiment: Pre-emergence herbicidal activity, ZEAMX; conditions: Application pre-emergence, 1000 g/Ha, evaluated after 13 days, scale 0-5
Protocol: as §1

Amaranthus retroflexus [6] = experiment: Post-emergence herbicidal activity, AMARE; conditions: Application post-emergence, 1000 g/Ha, evaluated after 13 days, scale 0-5
Protocol: (§2) Seeds of a variety of test species were sown in standard soil in pots. After 8 days cultivation (post-emergence) under controlled conditions in a glasshouse (at 24/16° C., day/night; 14 hours light; 65% humidity), the plants were sprayed with an aqueous spray solution derived from the formulation of the technical active ingredient in acetone/water (50:50) solution containing 0.5% Tween 20 (polyoxyethelyene sorbitan monolaurate, CAS RN 9005-64-5). The test plants were then grown in a glasshouse under controlled conditions (at 24/16° C., day/night; 14 hours light; 65% humidity) and watered twice daily. After 13 days, the test was evaluated (5=total damage to plant; 0=no damage to plant).

Abutilon theophrasti [7] = experiment: Post-emergence herbicidal activity, ABUTH; conditions: Application post-emergence, 1000 g/Ha, evaluated after 13 days, scale 0-5
Protocol: as §2

Setaria faberi [8] = experiment: Post-emergence herbicidal activity, SETFA; conditions: Application post-emergence, 1000 g/Ha, evaluated after 13 days, scale 0-5
Protocol: as §2

Echinochloa crus-galli [9] = experiment: Post-emergence herbicidal activity, ECHCG; conditions: Application post-emergence, 1000 g/Ha, evaluated after 13 days, scale 0-5
Protocol: as §2

Zea mays [10] = experiment: Post-emergence herbicidal activity, ZEAMX; conditions: Application post-emergence, 1000 g/Ha, evaluated after 13 days, scale 0-5
Protocol: as §2

SMILES | AMARE damage score (Amaranthus retroflexus [1]) | ECHCG damage score (Echinochloa crus-galli [2]) | ABUTH damage score (Abutilon theophrasti [3]) | SETFA damage score (Setaria faberi [4]) | ZEAMX damage score (Zea mays [5]) | AMARE damage score (Amaranthus retroflexus [6]) | ABUTH damage score (Abutilon theophrasti [7]) | SETFA damage score (Setaria faberi [8]) | ECHCG damage score (Echinochloa crus-galli [9]) | ZEAMX damage score (Zea mays [10])
Cc1ccc(-c2cnc(N3C(=O)N(C)CC3O)cc2C(F)(F)F)cn1 (centres unmarked) [Compound A20] | 5 | 5 | 5 | 5 | 3 | 5 | 5 | 5 | 5 | 4
CN1CC(O)N(c2cc(C(F)(F)F)c(-c3ccc(Cl)nc3)cn2)C1=O (centres unmarked) [Compound A21] | 5 | 5 | 5 | 5 | 3 | 5 | 5 | 5 | 5 | 5
CN1CC(O)N(c2cc(C(F)(F)F)c(-c3cncc(Cl)c3)cn2)C1=O (centres unmarked) [Compound A22] | 5 | 5 | 5 | 5 | 3 | 5 | 5 | 5 | 5 | 5
COc1cc(-c2cnc(N3C(=O)N(C)CC3O)cc2C(F)(F)F)ccn1 (centres unmarked) [Compound A24] | 5 | 5 | 5 | 5 | 2 | 5 | 5 | 5 | 5 | 5
COc1ccc(-c2cnc(N3C(=O)N(C)CC3O)cc2C(F)(F)F)c(OC)n1 (centres unmarked) [Compound A25] | 5 | 5 | 5 | 3 | 2 | 5 | 5 | 5 | 5 | 2
CN1CC(O)N(c2cc(C(F)(F)F)c(-c3cnc(C#N)nc3)cn2)C1=O (centres unmarked) [Compound A27] | 5 | 3 | 5 | 2 | 1 | 5 | 5 | 3 | 5 | 3
CN1CC(O)N(c2cc(C(F)(F)F)c(-c3cnn(C)c3)cn2)C1=O (centres unmarked) [Compound A28] | 5 | 5 | 5 | 4 | 3 | 5 | 5 | 5 | 5 | 5
CN1CC(O)N(c2cc(C(F)(F)F)c(-c3ccncc3C#N)cn2)C1=O (centres unmarked) [Compound A29] | 5 | 5 | 5 | 5 | 3 | 5 | 5 | 5 | 5 | 4
CN1CC(O)N(c2cc(C(F)(F)F)c(-c3ccc(N4CCOCC4)nc3)cn2)C1=O (centres unmarked) [Compound A31] | 2 | 0 | 2 | 2 | 0 | 5 | 5 | 5 | 4 | 2
CN1CC(O)N(c2cc(C(F)(F)F)c(-c3ccc(F)nc3)cn2)C1=O (centres unmarked) [Compound A32] | 5 | 5 | 5 | 5 | 3 | 5 | 5 | 5 | 5 | 5
COc1cncc(-c2cnc(N3C(=O)N(C)CC3O)cc2C(F)(F)F)c1 (centres unmarked) [Compound A33] | 5 | 4 | 5 | 3 | 2 | 5 | 5 | 5 | 5 | 4
CCOC(=O)c1cncc(-c2cnc(N3C(=O)N(C)CC3O)cc2C(F)(F)F)c1 (centres unmarked) [Compound A34] | 5 | 4 | 5 | 3 | 1 | 5 | 5 | 5 | 5 | 3
CC(=O)Nc1ccccc1-c1cnc(N2C(=O)N(C)CC2O)cc1C(F)(F)F (centres unmarked) [Compound A35] | 5 | 2 | 2 | 2 | 1 | 5 | 5 | 4 | 4 | 1
C=Cc1cnc(N2C(=O)N(C)CC2O)cc1C(F)(F)F (centres unmarked) [Compound A41] | 5 | 4 | 4 | 4 | 2 | 5 | 5 | 5 | 5 | 2
CN1CC(O)N(c2cc(C(F)(F)F)c(NC(=O)C(C)(C)C)cn2)C1=O (centres unmarked) [Compound A42] | 5 | 5 | 5 | 5 | 3 | 5 | 5 | 5 | 5 | 5
CN1CC(O)N(c2cc(C(F)(F)F)c(C(=O)NC(C)(C)C)cn2)C1=O (centres unmarked) [Compound A43] | 5 | 5 | 5 | 5 | 2 | 5 | 5 | 5 | 5 | 5
CN1CC(O)N(c2cc(C(F)F)ccn2)C1=O (centres unmarked) [Compound A44] | 5 | 4 | 5 | 5 | 2 | 5 | 5 | 5 | 5 | 4
CN1CC(O)N(c2cc(Cl)c(C(=O)NC(C)(C)C)cn2)C1=O (centres unmarked) [Compound A45] | 5 | 5 | 5 | 5 | 3 | 5 | 5 | 5 | 5 | 5
CN1CC(O)N(c2cc(C(F)(F)Cl)ccn2)C1=O (centres unmarked) [Compound A46] | 5 | 4 | 5 | 5 | 2 |  |  |  | 5 | 
CN1CC(O)N(c2cc(C(F)F)c(Cl)cn2)C1=O (centres unmarked) [Compound A47] | 4 | 4 | 4 | 4 | 0 |  |  |  | 4 | 
CN1CC(O)N(c2cc(C(F)(F)C(F)(F)F)ccn2)C1=O (centres unmarked) [Compound A48] | 5 | 4 | 5 | 5 | 2 | 5 | 5 | 5 | 5 | 3
COC(C)(C)c1ccnc(N2C(=O)N(C)CC2O)c1 (centres unmarked) [Compound A49] | 5 | 5 | 5 | 5 | 2 | 5 | 5 | 5 | 5 | 3
